Molecules are shown by their SMILES.

The target of the assay is T1, CCK-B receptors (CHO-CCK) (Homo sapiens, UniProt P32239).
T1 construct: expressed in transfected cells; host or cells: CHO (CHO-CCK model cells)
T1 sequence (P32239 1-447): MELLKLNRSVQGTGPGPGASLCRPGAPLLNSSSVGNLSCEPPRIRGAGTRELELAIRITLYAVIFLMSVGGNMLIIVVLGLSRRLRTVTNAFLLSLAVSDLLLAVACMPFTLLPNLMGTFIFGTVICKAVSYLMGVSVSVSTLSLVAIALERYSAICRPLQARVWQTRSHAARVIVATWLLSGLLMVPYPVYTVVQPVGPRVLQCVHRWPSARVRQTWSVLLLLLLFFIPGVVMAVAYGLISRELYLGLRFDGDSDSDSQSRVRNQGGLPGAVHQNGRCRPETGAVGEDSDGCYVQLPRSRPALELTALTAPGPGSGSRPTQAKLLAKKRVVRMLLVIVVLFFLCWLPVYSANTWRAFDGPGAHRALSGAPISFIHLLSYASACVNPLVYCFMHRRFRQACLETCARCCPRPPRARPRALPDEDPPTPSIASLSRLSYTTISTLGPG
The experiment in a line: Calcium flux (Fluo-8) agonist test on CHO-CCK model cells. The assay is classed as cell-based. The note with it: compound at 10 μM; percentage of signal of 20 nM CCK8 alone. As for the experimental part:
• To detect changes in intracellular calcium ion concentration after the compound acts on model cells containing CCK-B receptors (CHO-CCK).
• 1. The compound was formulated to a 10 mM mother liquor with DMSO, and then diluted into a series of 9 concentrations with a 3-fold gradient to form a 1000× stock solution.
2.1 Agonist • The compound stock solution was subjected to 200-fold dilution with HHBS buffer to form a 5× working solution.
• 1. Plate CHO-CCK cells in a 96-well plate with media containing 1% FBS, 30,000 cells/well/100 μL, and incubate overnight at 37° C. • 2. Prepare 1×Fluo-8 analysis buffer: mix 9 mL of HHBS, 1 mL of 10× Pluronic F127 Plus and 20 μL of Fluo-8 thoroughly for later use. • 3. Add Fluo-8 dye working solution to the cell plate, 100 μL/well. First incubate in a 37° C. incubator for 30 min, and then take it out and incubate at room temperature in the dark for 30 min. • 4. In the process of incubating cells, the compounds to be detected were prepared with HHBS. • 5.
The agonism/antagonism EC50 of the compound can be obtained by plotting the fitting curve with the agonism/antagonism percentage as Y-axis and the concentration of the compound as X-axis.
Background: Calcium flux is commonly read through the fluorescence of an indicator in the cells.

Turning to `COC(=O)C[C@H](NC(=O)[C@H](CC[S+](C)[O-])NC(=O)[C@H](N)Cc1c[nH]c2ccccc12)C(=O)N[C@@H](Cc1ccc(I)cc1)C(N)=O` (stereo partly drawn) [HT-122, D-Trp-Met(O)-Asp(Ome)-Phe(4-I)-NH2], the “Agonistic Activity (%) at 10 μM” value was 5.16%.
`COC(=O)C[C@H](NC(=O)[C@H](CC[S+](C)[O-])NC(=O)[C@H](N)Cc1c[nH]c2ccccc12)C(=O)N[C@@H](Cc1cc(Cl)cc(Cl)c1)C(N)=O` (stereo partly drawn) [HT-123, D-Trp-Met(O)-Asp(Ome)-Phe(3,5-DiCl)-NH2]: the “Agonistic Activity (%) at 10 μM” value was 0.84%.
For `COC(=O)C[C@H](NC(=O)[C@H](CC[S+](C)[O-])NC(=O)[C@H](N)Cc1c[nH]c2ccccc12)C(=O)N[C@@H](Cc1cc(F)cc(F)c1)C(N)=O` (stereo partly drawn) [HT-124, D-Trp-Met(O)t-Asp(Ome)-Phe(3,5-DiF)-NH2], the “Agonistic Activity (%) at 10 μM” value is 0.71%.
Then `COC(=O)C[C@H](NC(=O)[C@H](CC[S+](C)[O-])NC(=O)[C@H](N)Cc1c[nH]c2ccccc12)C(=O)N[C@@H](Cc1cc(F)c(F)c(F)c1)C(N)=O` (stereo partly drawn) [HT-125, D-Trp-Met(O)-Asp(Ome)-Phe(3,4,5-TriF)-NH2], with −4.16%; and `COC(=O)C[C@H](NC(=O)[C@H](CCS(C)(=O)=O)NC(=O)[C@H](N)Cc1c[nH]c2ccccc12)C(=O)N[C@@H](Cc1ccccc1[N+](=O)[O-])C(N)=O` [HT-126, D-Trp-Met(O)-Asp(Ome)-Phe(2-NO2)-NH2], with 9.50%; and `COC(=O)C[C@H](NC(=O)[C@H](CCS(C)(=O)=O)NC(=O)[C@H](N)Cc1c[nH]c2ccccc12)C(=O)N[C@@H](Cc1ccccc1F)C(N)=O` [HT-127, D-Trp-Met(O2)-Asp(Ome)-Phe(2-F)-NH2], with 1.79%.
Then `COC(=O)C[C@H](NC(=O)[C@H](CCS(C)(=O)=O)NC(=O)[C@H](N)Cc1c[nH]c2ccccc12)C(=O)N[C@@H](Cc1cccc(Cl)c1)C(N)=O` [HT-128, D-Trp-Met(O2)-Asp(Ome)-Phe(3-Cl)-NH2], with 0.73%; and `COC(=O)C[C@H](NC(=O)[C@H](CCS(C)(=O)=O)NC(=O)[C@H](N)Cc1c[nH]c2ccccc12)C(=O)N[C@@H](Cc1cccc(F)c1)C(N)=O` [HT-129, D-Trp-Met(O2)-Asp(Ome)-Phe(3-F)-NH2], with −4.28%.
Then `COC(=O)C[C@H](NC(=O)[C@H](CCS(C)(=O)=O)NC(=O)[C@H](N)Cc1c[nH]c2ccccc12)C(=O)N[C@@H](Cc1cccc(C)c1)C(N)=O` [HT-130, D-Trp-Met(O2)-Asp(Ome)-Phe(3-I)-NH2], with 0.86%; and `COC(=O)C[C@H](NC(=O)[C@H](CCS(C)(=O)=O)NC(=O)[C@H](N)Cc1c[nH]c2ccccc12)C(=O)N[C@@H](Cc1cccc(Br)c1)C(N)=O` [HT-131, D-Trp-Met(O2)-Asp(Ome)-Phe(3-Br)-NH2], with 5.87%; and `COC(=O)C[C@H](NC(=O)[C@H](CCS(C)(=O)=O)NC(=O)[C@H](N)Cc1c[nH]c2ccccc12)C(=O)N[C@@H](Cc1ccc(C)cc1)C(N)=O` [HT-132, D-Trp-Met(O2)-Asp(Ome)-Phe(4-Me)-NH2], with −14.42%.
In the case of `COC(=O)C[C@H](NC(=O)[C@H](CCS(C)(=O)=O)NC(=O)[C@H](N)Cc1c[nH]c2ccccc12)C(=O)N[C@@H](Cc1ccc(N=[N+]=[N-])cc1)C(N)=O` [HT-133, D-Trp-Met(O2)-Asp(Ome)-Phe(4-N3)-NH2], the “Agonistic Activity (%) at 10 μM” value is 8.66%.
Then `COC(=O)C[C@H](NC(=O)[C@H](CCS(C)(=O)=O)NC(=O)[C@H](N)Cc1c[nH]c2ccccc12)C(=O)N[C@@H](Cc1ccc(C#N)cc1)C(N)=O` [HT-134, D-Trp-Met(O2)-Asp(Ome)-Phe(4-CN)-NH2], with 11.25%; and `COC(=O)C[C@H](NC(=O)[C@H](CCS(C)(=O)=O)NC(=O)[C@H](N)Cc1c[nH]c2ccccc12)C(=O)N[C@@H](Cc1ccc([N+](=O)[O-])cc1)C(N)=O` [HT-135, D-Trp-Met(O2)-Asp(Ome)-Phe(4-NO2)-NH2], with 11.52%.
Then `COC(=O)C[C@H](NC(=O)[C@H](CCS(C)(=O)=O)NC(=O)[C@H](N)Cc1c[nH]c2ccccc12)C(=O)N[C@@H](Cc1ccc(Br)cc1)C(N)=O` [HT-136, D-Trp-Met(O2)-Asp(Ome)-Phe(4-Br)-NH2], with 2.69%.
Then `COC(=O)C[C@H](NC(=O)[C@H](CCS(C)(=O)=O)NC(=O)[C@H](N)Cc1c[nH]c2ccccc12)C(=O)N[C@@H](Cc1ccc(Cl)cc1)C(N)=O` [HT-137, D-Trp-Met(O2)-Asp(Ome)-Phe(4-Cl)-NH2], with 2.10%; and `[2H]c1ccc(C[C@H](NC(=O)[C@H](CC(=O)OC)NC(=O)[C@H](CCS(C)(=O)=O)NC(=O)[C@H](N)Cc2c[nH]c3ccccc23)C(N)=O)cc1` [HT-138, D-Trp-Met(O2)-Asp(Ome)-Phe(4-F)-NH2], with −3.84%; and `COC(=O)C[C@H](NC(=O)[C@H](CCS(C)(=O)=O)NC(=O)[C@H](N)Cc1c[nH]c2ccccc12)C(=O)N[C@@H](Cc1ccc(I)cc1)C(N)=O` [HT-139, D-Trp-Met(O2)-Asp(Ome)-Phe(4-I)-NH2], with 13.02%.
Consider `COC(=O)C[C@H](NC(=O)[C@H](CCS(C)(=O)=O)NC(=O)[C@H](N)Cc1c[nH]c2ccccc12)C(=O)N[C@@H](Cc1cc(Cl)cc(Cl)c1)C(N)=O` [HT-140, D-Trp-Met(O2)-Asp(Ome)-Phe(3,5-DiCl)-NH2], for which the “Agonistic Activity (%) at 10 μM” value is given as 10.66%.
Then `COC(=O)C[C@H](NC(=O)[C@H](CCS(C)(=O)=O)NC(=O)[C@H](N)Cc1c[nH]c2ccccc12)C(=O)N[C@@H](Cc1cc(F)cc(F)c1)C(N)=O` [HT-141, D-Trp-Met(O2)-Asp(Ome)-Phe(3,5-DiF)-NH2], with 5.60%.
Then `COC(=O)C[C@H](NC(=O)[C@H](CCS(C)(=O)=O)NC(=O)[C@H](N)Cc1c[nH]c2ccccc12)C(=O)N[C@@H](Cc1cc(F)c(F)c(F)c1)C(N)=O` [HT-142, D-Trp-Met(O2)-Asp(Ome)-Phe(3,4,5-TriF)-NH2], with 0.79%.
Then `C[S+]([O-])CC[C@H](NC(=O)[C@H](N)Cc1c[nH]c2ccccc12)C(=O)N[C@@H](CC(=O)OCCNc1cccc2c(O)cccc12)C(=O)N[C@@H](Cc1ccccc1[N+](=O)[O-])C(N)=O` (stereo partly drawn) [HT-143, D-Trp-Met(O)-Asp(EDANS)-Phe(2-NO2)-NH2], with 4.33%; and `C[S+]([O-])CC[C@H](NC(=O)[C@H](N)Cc1c[nH]c2ccccc12)C(=O)N[C@@H](CC(=O)OCCNc1cccc2c(O)cccc12)C(=O)N[C@@H](Cc1cccc(Cl)c1)C(N)=O` (stereo partly drawn) [HT-145, D-Trp-Met(O)t-Asp(EDANS)-Phe(3-Cl)-NH2], with −5.52%.
Consider `C[S+]([O-])CC[C@H](NC(=O)[C@H](N)Cc1c[nH]c2ccccc12)C(=O)N[C@@H](CC(=O)OCCNc1cccc2c(O)cccc12)C(=O)N[C@@H](Cc1ccc(N=[N+]=[N-])cc1)C(N)=O` (stereo partly drawn) [HT-150, D-Trp-Met(O)-Asp(EDANS)-Phe(4-N3)-NH2], for which the “Agonistic Activity (%) at 10 μM” value came to 0.81%.
Then `C[S+]([O-])CC[C@H](NC(=O)[C@H](N)Cc1c[nH]c2ccccc12)C(=O)N[C@@H](CC(=O)OCCNc1cccc2c(O)cccc12)C(=O)N[C@@H](Cc1ccc(F)cc1)C(N)=O` (stereo partly drawn) [HT-155, D-Trp-Met(O)-Asp(EDANS)-Phe(4-F)-NH2], with 0.50%.

Values taken from patent publication US20240415918A1, “Polypeptide and its use as a CCK receptor agonist/antagonist” (Centre for Regenerative Medicine & Health, Hong Kong …, priority 2021, published 2024).
